{"source": "paper PMC7589190", "about": "“Targeted Amino Acid Substitutions in a Trichoderma Peptaibol Confer Activity against Fungal Plant Pathogens and Protect Host Tissues from Botrytis cinerea Infection” (International Journal of Molecular Sciences, 2020)", "key": {"[1]": {"tested_on": "B. cinerea", "test": "Resazurin vital dye growth assay in microtiter wells", "type": "cell-based, Botrytis cinerea", "design": "key to Antifungal Activity: –, no activity", "details": "for Growth Delay / fungal growth / activity against B. cinerea (in words): peptide 15 µM; for Growth Delay: PDB pH 6.9, 5 × 10^5 spores mL^−1, resazurin, 25 °C dark, vs untreated control, repeated three times; for fungal growth / activity against B. cinerea (in words): resazurin dye; for Antifungal Activity: summary of performance of Lys-containing analogs against B. cinerea"}, "[2]": {"tested_on": "B. cinerea", "test": "Protection of common bean leaves from B. cinerea infection", "details": "common bean leaves (Phaseolus vulgaris, Borlotto var. Teggia), peptide sprayed at 50 µM, 7 dpi, vs water control", "protocol": "Leaves of common bean (Phaseolus vulgaris, Borlotto var. Teggia) were detached from 12 days-old plants grown in organic soil into a climatic chamber with a 14 h photoperiod and 22/20 °C day/night temperature.\nTreatments were performed by spraying the peptides at different concentrations on leaves and berries. Water spraying was performed as a negative control.\nLeaves were arranged on moist towels in plastic trays and inoculated with a suspension of 2.5 × 10^6 mL^−1 conidia of B. cinerea in potato dextrose broth (PDB). Ten microliters of the conidia suspension were dropped on two or three points apart on the leaf surface of common bean and grapevine leaves, respectively.\nInoculated leaves and berries were incubated in the dark at 25 °C in plastic bags to maintain humidity.\nSeven days post-inoculation (dpi), the size of the symptomatic leaf area was measured from pictures taken with a Panasonic Lumix DMC-FZ2000 by using the graphic software “Fiji ImageJ” (GNU General Public License).\nThe experiment was repeated three times with leaves and four times with berries. Each treatment was performed with seven leaves of common bean and three leaves of the grapevine.\nData obtained in the infection experiments performed on common bean leaves were statistically analyzed by applying the one-way Anova Bonferroni–Holm test. The statistical analysis was performed within the groups of peptides tested at the same time compared to their respective control."}, "[3]": {"details": "monitored every 12 h for seven days"}}, "note": "Square brackets hold non-standard residues; d marks the D form. Peptide text beside a SMILES is read from it. * marks the point of attachment. Leu(ol) = CC(C)C[C@H](N)CO; Octanoyl = CCCCCCCC(=O)*; Aib = CC(C)(N)C(=O)O"}
{"compound": "CCCCCCCC(=O)NC(C)(C)C(=O)N[C@@H](CCCCN)C(=O)N[C@@H](CC(C)C)C(=O)NC(C)(C)C(=O)NCC(=O)NCC(=O)N[C@@H](CC(C)C)C(=O)NC(C)(C)C(=O)NCC(=O)N[C@H](C(=O)N[C@H](CO)CC(C)C)[C@@H](C)CC", "note": "[Peptide 2] (Octanoyl-[Aib]KL[Aib]GGL[Aib]GI[Leu(ol)])", "values": [{"measurement": "Growth Delay", "setting": "[1]; [3]", "result": "36 to 48", "unit": "h"}, {"measurement": "fungal growth / activity against B. cinerea (in words)", "setting": "[1]; [3]", "result": "delayed growth"}, {"measurement": "Antifungal Activity", "setting": "[1]", "result": "++"}]}
{"compound": "CCCCCCCC(=O)NC(C)(C)C(=O)NCC(=O)N[C@@H](CC(C)C)C(=O)NC(C)(C)C(=O)N[C@@H](CCCCN)C(=O)NCC(=O)N[C@@H](CC(C)C)C(=O)NC(C)(C)C(=O)NCC(=O)N[C@H](C(=O)N[C@H](CO)CC(C)C)[C@@H](C)CC", "note": "[Peptide 3]", "values": [{"measurement": "Growth Delay", "setting": "[1]; [3]", "result": 0, "unit": "h"}, {"measurement": "fungal growth / activity against B. cinerea (in words)", "setting": "[1]; [3]", "result": "fungal growth was observed after 12 h"}, {"measurement": "Antifungal Activity", "setting": "[1]", "result": "–"}]}
{"compound": "CCCCCCCC(=O)NC(C)(C)C(=O)NCC(=O)N[C@@H](CC(C)C)C(=O)NC(C)(C)C(=O)N[C@@H](CCCCN)C(=O)N[C@@H](CCCCN)C(=O)N[C@@H](CC(C)C)C(N)=O", "note": "[Peptide 4c1] (Octanoyl-[Aib]GL[Aib]KKL-NH2)", "values": [{"measurement": "reduction of infected (symptomatic) leaf area", "setting": "[2]", "result": "~55", "unit": "%"}, {"measurement": "Growth Delay", "setting": "[1]; monitored for seven days", "result": ">170", "unit": "h"}, {"measurement": "fungal growth / activity against B. cinerea (in words)", "setting": "[1]; [3]", "result": "inhibiting mycelial growth"}]}
{"compound": "CCCCCCCC(=O)NC(C)(C)C(=O)N[C@@H](CCCCN)C(=O)N[C@@H](CCCCN)C(=O)N[C@@H](CC(C)C)C(=O)NC(C)(C)C(=O)NCC(=O)N[C@H](C(=O)N[C@@H](CC(C)C)C(N)=O)[C@@H](C)CC", "note": "[Peptide 4c2] (Octanoyl-[Aib]KKL[Aib]GIL-NH2)", "values": [{"measurement": "reduction of infected (symptomatic) leaf area", "setting": "[2]", "result": "about 70%"}, {"measurement": "Growth Delay", "setting": "[1]; monitored for seven days", "result": ">170", "unit": "h"}, {"measurement": "fungal growth / activity against B. cinerea (in words)", "setting": "[1]; [3]", "result": "inhibiting mycelial growth"}]}
{"compound": "CCCCCCCC(=O)NC(C)(C)C(=O)N[C@@H](CCCCN)C(=O)N[C@@H](CCCCN)C(=O)N[C@@H](CC(C)C)C(=O)NC(C)(C)C(=O)NCC(=O)N[C@H](C(=O)N[C@H](CO)CC(C)C)[C@@H](C)CC", "note": "[Peptide 4c] (Octanoyl-[Aib]KKL[Aib]GI[Leu(ol)])", "values": [{"measurement": "reduction of infected (symptomatic) leaf area", "setting": "[2]", "result": "~55", "unit": "%"}, {"measurement": "Growth Delay", "setting": "[1]; monitored for seven days", "result": ">170", "unit": "h"}, {"measurement": "fungal growth / activity against B. cinerea (in words)", "setting": "[1]; [3]", "result": "inhibiting mycelial growth"}]}
{"compound": "CCCCCCCC(=O)NC(C)(C)C(=O)NCC(=O)N[C@@H](CC(C)C)C(=O)NC(C)(C)C(=O)N[C@@H](CCCCN)C(=O)NC(C)(C)C(=O)N[C@@H](CC(C)C)C(=O)NC(C)(C)C(=O)NCC(=O)N[C@H](C(=O)N[C@H](CO)CC(C)C)[C@@H](C)CC", "note": "[Peptide 6]", "values": [{"measurement": "Growth Delay", "setting": "[1]; [3]", "result": "12 to 24", "unit": "h"}, {"measurement": "fungal growth / activity against B. cinerea (in words)", "setting": "[1]; [3]", "result": "delayed growth"}, {"measurement": "Antifungal Activity", "setting": "[1]", "result": "+"}]}
{"compound": "CCCCCCCC(=O)NC(C)(C)C(=O)N[C@@H](CCCCN)C(=O)N[C@@H](CC(C)C)C(=O)NC(C)(C)C(=O)NCC(=O)N[C@@H](CCCCN)C(=O)N[C@@H](CC(C)C)C(=O)NC(C)(C)C(=O)NCC(=O)N[C@H](C(=O)N[C@H](CO)CC(C)C)[C@@H](C)CC", "note": "[Peptide 7]", "values": [{"measurement": "Growth Delay", "setting": "[1]; [3]", "result": "72 to 84", "unit": "h"}, {"measurement": "fungal growth / activity against B. cinerea (in words)", "setting": "[1]; [3]", "result": "delayed growth"}, {"measurement": "Antifungal Activity", "setting": "[1]", "result": "++"}]}
